According to paper PMC2774623 (Biochemistry, 2008):

What was measured:
[1] = test system: CK2 holoenzyme; experiment: Effect of CFTR peptides on substrate phosphorylation by CK2 holoenzyme; format: biochemical, human
[2] = test system: CK2α catalytic subunit; experiment: Effect of CFTR peptides on substrate phosphorylation by CK2α catalytic subunit; format: biochemical, human; settings: below 400 μM, murine NBD1, Figure 3A
[3] = test system: CK2α catalytic subunit; settings: β interaction with CK2α; cited from earlier work

In the case of “GTIKENIIFGVSYDEYRYR [CFTR 500−518 wild type]”, the “stimulation of I-2 and HSP90 phosphorylation by CK2 holoenzyme” value ([1]; peptides 80 μM, I-2 2.5 μM, HSP90 0.5 μM, Figure 5A) is reported as “no stimulation” and the “effect on NBD1 phosphorylation by CK2α at lower peptide concentrations” value [2] is reported as “slight stimulatory effect”.
For GTIKENIIGVSYDEYRYR [CFTR 500−518 ΔF508], the “inhibition of holoenzyme-mediated NBD1 phosphorylation” value ([1]; peptide concentration up to 800 μM, Figure 3B) was “no inhibition”.
For “Δ wt: CK2 β-subunit; its interaction values with CK2α were from ref 29”, the “ka (M^−1 s^−1) × 10^3” value [3] is given as 22.7 M^−1 s^−1 × 10^3 and the “kd (s^−1) × 10^−3” value [3] is given as 0.93 s^−1 × 10^−3.
